Measurements reported in ChEMBL document CHEMBL2203140, “Syntheses and structure-activity relationship studies of N-substituted-β-D-glucosaminides as selective cytotoxic agents” (Bioorg Med Chem Lett, 2012).

What was measured:
Format in all cases: functional, cell-based
HCT-116 = test: Cytotoxicity against human HCT116 cells after 48 hrs by MTT assay; settings: HCT-116, 48 h
HeLa = test: Cytotoxicity against human HeLa cells after 48 hrs by MTT assay
HT-1080 = test: Cytotoxicity against human HT1080 cells after 48 hrs by MTT assay; settings: HT-1080, 48 h
A549 = test: Cytotoxicity against human A549 cells after 48 hrs by MTT assay; settings: A549, 48 h
MCF7 = test: Cytotoxicity against human MCF7 cells after 48 hrs by MTT assay; settings: MCF7, 48 h
HepG2 = test: Cytotoxicity against human HepG2 cells after 48 hrs by MTT assay; settings: HepG2, 48 h

| Structure (SMILES) | IC50 (HCT-116) | IC50 (HeLa) | IC50 (HT-1080) | IC50 (A549) | IC50 (MCF7) | IC50 (HepG2) |
| --- | --- | --- | --- | --- | --- | --- |
| C[C@@H]1CC[C@@]2(OC1)O[C@H]1C[C@H]3[C@@H]4CC=C5C[C@@H](O[C@@H]6O[C@H](CO)[C@@H](O)[C@H](O)[C@H]6NC(=O)/C=C/c6cccc(Br)c6)CC[C@]5(C)[C@H]4CC[C@]3(C)[C@H]1[C@@H]2C | > 50 µM | > 50 µM | > 50 µM | > 50 µM | > 50 µM | > 50 µM |
| C[C@@H]1CC[C@@]2(OC1)O[C@H]1C[C@H]3[C@@H]4CC=C5C[C@@H](O[C@@H]6O[C@H](CO)[C@@H](O)[C@H](O)[C@H]6NC(=O)NCc6ccccc6)CC[C@]5(C)[C@H]4CC[C@]3(C)[C@H]1[C@@H]2C | > 50 µM | 27 µM | > 50 µM | 28.5 µM | 23.9 µM | > 50 µM |
| C[C@@H]1CC[C@@]2(OC1)O[C@H]1C[C@H]3[C@@H]4CC=C5C[C@@H](O[C@@H]6O[C@H](CO)[C@@H](O)[C@H](O)[C@H]6NC(=O)NCc6ccc(F)cc6)CC[C@]5(C)[C@H]4CC[C@]3(C)[C@H]1[C@@H]2C | > 50 µM | > 50 µM | 42 µM | > 50 µM | > 50 µM | > 50 µM |
| COc1ccc(CNC(=O)N[C@H]2[C@H](O[C@H]3CC[C@@]4(C)C(=CC[C@H]5[C@@H]6C[C@@H]7O[C@]8(CC[C@@H](C)CO8)[C@@H](C)[C@@H]7[C@@]6(C)CC[C@@H]54)C3)O[C@H](CO)[C@@H](O)[C@@H]2O)cc1 | > 50 µM | > 50 µM | > 50 µM | > 50 µM | > 50 µM | > 50 µM |
| C[C@@H]1CC[C@@]2(OC1)O[C@H]1C[C@H]3[C@@H]4CC=C5C[C@@H](O[C@@H]6O[C@H](CO)[C@@H](O)[C@H](O)[C@H]6NC(=O)NC6CC6)CC[C@]5(C)[C@H]4CC[C@]3(C)[C@H]1[C@@H]2C | > 50 µM | 43.5 µM | > 50 µM | > 50 µM | > 50 µM | > 50 µM |
| C[C@@H]1CC[C@@]2(OC1)O[C@H]1C[C@H]3[C@@H]4CC=C5C[C@@H](O[C@@H]6O[C@H](CO)[C@@H](O)[C@H](O)[C@H]6NC(=O)NC(C)(C)C)CC[C@]5(C)[C@H]4CC[C@]3(C)[C@H]1[C@@H]2C | > 50 µM | 27.6 µM | 42.3 µM | > 50 µM | 26.8 µM | > 50 µM |
| CCCCCCCNC(=O)N[C@H]1[C@H](O[C@H]2CC[C@@]3(C)C(=CC[C@H]4[C@@H]5C[C@@H]6O[C@]7(CC[C@@H](C)CO7)[C@@H](C)[C@@H]6[C@@]5(C)CC[C@@H]43)C2)O[C@H](CO)[C@@H](O)[C@@H]1O | > 50 µM | > 50 µM | 43 µM | > 50 µM | > 50 µM | > 50 µM |
| C[C@@H]1CC[C@@]2(OC1)O[C@H]1C[C@H]3[C@@H]4CC=C5C[C@@H](O[C@@H]6O[C@H](CO)[C@@H](O)[C@H](O)[C@H]6NC(=O)NN6CCCCC6)CC[C@]5(C)[C@H]4CC[C@]3(C)[C@H]1[C@@H]2C | > 50 µM | > 50 µM | 35.1 µM | > 50 µM | > 50 µM | > 50 µM |
| C[C@@H]1CC[C@@]2(OC1)O[C@H]1C[C@H]3[C@@H]4CC=C5C[C@@H](O[C@@H]6O[C@H](CO)[C@@H](O)[C@H](O)[C@H]6NC(=S)N/N=C/c6ccccc6)CC[C@]5(C)[C@H]4CC[C@]3(C)[C@H]1[C@@H]2C | 40 µM | 36.2 µM | > 50 µM | 49.7 µM | 48.2 µM | 29.5 µM |
| COc1ccc(/C=N/NC(=S)N[C@H]2[C@H](O[C@H]3CC[C@@]4(C)C(=CC[C@H]5[C@@H]6C[C@@H]7O[C@]8(CC[C@@H](C)CO8)[C@@H](C)[C@@H]7[C@@]6(C)CC[C@@H]54)C3)O[C@H](CO)[C@@H](O)[C@@H]2O)cc1 | 38.2 µM | 34.8 µM | > 50 µM | 37.3 µM | > 50 µM | 28.2 µM |
| C[C@@H]1CC[C@@]2(OC1)O[C@H]1C[C@H]3[C@@H]4CC=C5C[C@@H](O[C@@H]6O[C@H](CO)[C@@H](O)[C@H](O)[C@H]6NC(=S)N/N=C/c6cc(C(F)(F)F)cc(C(F)(F)F)c6)CC[C@]5(C)[C@H]4CC[C@]3(C)[C@H]1[C@@H]2C | > 50 µM | > 50 µM | > 50 µM | > 50 µM | > 50 µM | > 50 µM |
| Cc1ccc(/C=C/C(=O)N[C@H]2[C@H](O[C@H]3CC[C@@]4(C)C(=CC[C@H]5[C@@H]6C[C@@H]7O[C@]8(CC[C@@H](C)CO8)[C@@H](C)[C@@H]7[C@@]6(C)CC[C@@H]54)C3)O[C@H](CO)[C@@H](O)[C@@H]2O)cc1 | 40.4 µM | 6.5 µM | 23.5 µM | 41.6 µM | 5.3 µM | 35.5 µM |
| COc1ccccc1/C=C/C(=O)N[C@H]1[C@H](O[C@H]2CC[C@@]3(C)C(=CC[C@H]4[C@@H]5C[C@@H]6O[C@]7(CC[C@@H](C)CO7)[C@@H](C)[C@@H]6[C@@]5(C)CC[C@@H]43)C2)O[C@H](CO)[C@@H](O)[C@@H]1O | 38.9 µM | 27.5 µM | 4.3 µM | 23.1 µM | 23.1 µM | 29.5 µM |
| COc1cccc(/C=C/C(=O)N[C@H]2[C@H](O[C@H]3CC[C@@]4(C)C(=CC[C@H]5[C@@H]6C[C@@H]7O[C@]8(CC[C@@H](C)CO8)[C@@H](C)[C@@H]7[C@@]6(C)CC[C@@H]54)C3)O[C@H](CO)[C@@H](O)[C@@H]2O)c1 | > 50 µM | 27 µM | 26.6 µM | 26.9 µM | 24.1 µM | > 50 µM |
| COc1ccc(/C=C/C(=O)N[C@H]2[C@H](O[C@H]3CC[C@@]4(C)C(=CC[C@H]5[C@@H]6C[C@@H]7O[C@]8(CC[C@@H](C)CO8)[C@@H](C)[C@@H]7[C@@]6(C)CC[C@@H]54)C3)O[C@H](CO)[C@@H](O)[C@@H]2O)cc1 | 29.5 µM | 6.1 µM | 3.5 µM | 24.4 µM | 0.5 µM | 30.7 µM |
| COc1cccc(/C=C/C(=O)N[C@H]2[C@H](O[C@H]3CC[C@@]4(C)C(=CC[C@H]5[C@@H]6C[C@@H]7O[C@]8(CC[C@@H](C)CO8)[C@@H](C)[C@@H]7[C@@]6(C)CC[C@@H]54)C3)O[C@H](CO)[C@@H](O)[C@@H]2O)c1OC | 47.4 µM | 36.2 µM | 21.2 µM | 43.4 µM | 44.4 µM | 45.6 µM |
| COc1ccc(/C=C/C(=O)N[C@H]2[C@H](O[C@H]3CC[C@@]4(C)C(=CC[C@H]5[C@@H]6C[C@@H]7O[C@]8(CC[C@@H](C)CO8)[C@@H](C)[C@@H]7[C@@]6(C)CC[C@@H]54)C3)O[C@H](CO)[C@@H](O)[C@@H]2O)c(OC)c1 | 42.9 µM | 22.3 µM | 5.8 µM | 27.1 µM | 26.7 µM | 41.3 µM |
| COc1ccc(OC)c(/C=C/C(=O)N[C@H]2[C@H](O[C@H]3CC[C@@]4(C)C(=CC[C@H]5[C@@H]6C[C@@H]7O[C@]8(CC[C@@H](C)CO8)[C@@H](C)[C@@H]7[C@@]6(C)CC[C@@H]54)C3)O[C@H](CO)[C@@H](O)[C@@H]2O)c1 | 35.6 µM | 32.2 µM | > 50 µM | 47.8 µM | > 50 µM | 31.7 µM |
| COc1ccc(/C=C/C(=O)N[C@H]2[C@H](O[C@H]3CC[C@@]4(C)C(=CC[C@H]5[C@@H]6C[C@@H]7O[C@]8(CC[C@@H](C)CO8)[C@@H](C)[C@@H]7[C@@]6(C)CC[C@@H]54)C3)O[C@H](CO)[C@@H](O)[C@@H]2O)cc1OC | 29 µM | 26.1 µM | > 50 µM | 30.3 µM | 31.3 µM | 25.9 µM |
| COc1cc(/C=C/C(=O)N[C@H]2[C@H](O[C@H]3CC[C@@]4(C)C(=CC[C@H]5[C@@H]6C[C@@H]7O[C@]8(CC[C@@H](C)CO8)[C@@H](C)[C@@H]7[C@@]6(C)CC[C@@H]54)C3)O[C@H](CO)[C@@H](O)[C@@H]2O)cc(OC)c1OC | > 50 µM | > 50 µM | > 50 µM | > 50 µM | > 50 µM | > 50 µM |
| C[C@@H]1CC[C@@]2(OC1)O[C@H]1C[C@H]3[C@@H]4CC=C5C[C@@H](O[C@@H]6O[C@H](CO)[C@@H](O)[C@H](O)[C@H]6NC(=O)/C=C/c6cccc(Cl)c6)CC[C@]5(C)[C@H]4CC[C@]3(C)[C@H]1[C@@H]2C | > 50 µM | > 50 µM | > 50 µM | > 50 µM | > 50 µM | > 50 µM |
| C[C@@H]1CC[C@@]2(OC1)O[C@H]1C[C@H]3[C@@H]4CC=C5C[C@@H](O[C@@H]6O[C@H](CO)[C@@H](O)[C@H](O)[C@H]6NC(=O)/C=C/c6ccccc6[N+](=O)[O-])CC[C@]5(C)[C@H]4CC[C@]3(C)[C@H]1[C@@H]2C | > 50 µM | > 50 µM | 36.5 µM | > 50 µM | > 50 µM | > 50 µM |
| CC(=O)N[C@H]1[C@H](O[C@H]2CC[C@@]3(C)C(=CC[C@H]4[C@@H]5C[C@@H]6O[C@]7(CC[C@@H](C)CO7)[C@@H](C)[C@@H]6[C@@]5(C)CC[C@@H]43)C2)O[C@H](CO)[C@@H](O)[C@@H]1O | > 50 µM |  | > 50 µM | > 50 µM |  | > 50 µM |
| O=c1[nH]cc(F)c(=O)[nH]1 [FLUOROURACIL] | 36.4 µM | 63.4 µM | 15.2 µM |  | 78.6 µM | 51.5 µM |
